Entries after “also recorded” stand apart in the source; their conditions may differ.
Tests used:
Assay type in all cases: cell-based
BRCA1 [1] = experiment: BRCA1 expression after ectopic miRNA overexpression in HL60 cells (immunoblot, qPCR)
Protocol: Analysis of the miRNAs of the miR-183 cluster was conducted using qPCR using the TaqMan MicroRNA Assay from Applied Biosystems as per the manufacturer's instructions and normalized to RNU6B snRNA. Analysis of mRNA expression was carried out with qPCR using the SYBR Green master mix (Applied Biosystems, Foster City, Calif.) according to the manufacture's manual and the BioRad iCycler. The mRNA (1 μg) was reverse transcribed with 50 ng random primers using 100 U moloney murine leukemia virus (MMLV) reverse transcriptase (Epicentre, Madison, Wis.) according to the manufacturer's manual. Results were normalized to 5SrRNA or GAPDH.
(§1) In each experiment, where Western blot analysis was done, a fraction of 0.2−0.5×10^6 cells was taken out at day, 3 or 4, post-transfection. Breast cancer cell lines were collected from 6 well tissue culture plates (0.5-1×10^6 cells). Cells lysates were prepared in RIPA buffer (150 mM NaCl, 1% NP-40, 0.5% sodium deoxycholate, 0.1% SDS, 50 mM Tris, pH 8.0). Lysates of 0.1×10^6 cells of each sample plus loading buffer were loaded on 8% SDS-PAGE gels, semi-dry transferred on nitrocellulose membrane, and probed with anti-BRCA1 antibody at a 1:500 dilution (CALBIOCHEM, MS110) and anti-tubulin antibody at a 1:10,000 dilution (Sigma, Clone B-5-1-2).

MDA-MB231 cells = experiment: Clonogenic cell survival assay after γ-radiation, MDA-MB231; conditions: MDA-MB231, vs control mimic
Protocol: Hela cells (0.35×10^6 cells/well), MDA-MB231 cells (0.4×10^6 cells/well), 21NT cells (0.5×10^6) were seeded overnight and transfected with 10 nM of miRNA mimics or antagomirs (Ambion, Austin, Tex.) using Lipofectamine 2000. In rescue experiments, miR-182 or control mimics were co-transfected with 1 μg/ml BRCA1 (pcDNA3.1 vector). After 2 days, 1000 cells in 4 ml DMEM media (10% FBS v/v) were seeded on 6 cm tissue culture dishes in four replicates and allowed to attach overnight before treatment. PARP inhibitors (4-amino-1,8-naphthalimide (Sigma, St. Louis, Mo.) or ABT-888 (ChemieTek, Indianapolis, Ind.) in DMSO) were added to the growth media at indicated concentrations. Irradiated cells as well as cells in the presence of PARP inhibitor were allowed to form colonies for 14 days. For evaluation, formed colonies were stained with crystal violet and surviving colonies containing >50 cells were counted. Plating efficiency was 30-50%.

U2OS-DR-GFP cells = experiment: Homologous recombination (HR) DR-GFP reporter assay; conditions: U2OS DR-GFP stably expressing miR-182, I-SceI
Protocol: U2OS-DR-GFP cells, with a single, stably integrated copy of the transgenic reporter DR-GFP were seeded (0.35×10^6 cells/well) into the wells of a 6-well tissue culture plate, transfected with a control and an miR-182 expression construct. Cells were selected for 4 weeks with 100 μg/ml of puromycin. mir-182 overexpression was confirmed with qPCR (FIG. 3C). HR assay was done as described (Chowdhury et al., Mol. Cell, 31:33-46 (2008)). Briefly, 2×10^5 cells plated overnight in 24-well plates were transfected with 0.8 μg of I-SceI expression plasmid (pCBA Sce) using Lipofectamine 2000. 2 days later, GFP positive cells were assayed by FACScan flow cytometer.

BRCA1 [2] = experiment: BRCA1 immunoblot in MDA-MB231 cells; conditions: MDA-MB231 cells overexpressing miR-182 vs miR-scr
Protocol: as §1

U2OS cells = experiment: G2/M checkpoint, phospho-H3 flow cytometry after IR; conditions: 5 Gy IR, nocodazole, P-H3 staining
Protocol: U2OS cells (0.35×10^6 cells/well) were transfected with 10 nM control mimic or miR-182 mimic and, in rescue experiments, co-transfected with 1 μg of BRCA1 (lacking 3′UTR) expression construct using Lipofectamine 2000. After 2 days, cells were seeded into the wells of 12-well tissue culture plates, incubated overnight, irradiated (5 Gy) and released in nocadozole (200 ng/ml) containing media after 2 hours. The next day the cells were stained with primary Phospho-H3 (Ser10) antibodies 1:100 dilution (Upstate Biotechnology, Lake Placid, N.Y.) and FITC-labeled secondary antibodies 1:50 dilution (Santa Cruz Biotechnology, Santa Cruz, Calif.) and analyzed by flow cytometry.

BRCA1 transcript = experiment: Immunoprecipitation of HA-AGO1/miRNA complex, qRT-PCR of bound transcripts, MDA-MB231; conditions: MDA-MB231, HA-AGO1 IP, normalized to 5S rRNA
Protocol: miR-182 cDNA and miR-17 cDNA was cloned from HL60 cDNA in pcDNA3.1-Puro expression vector (Invitrogen, Carlsbad, Calif.) using the following primers: […]
MDA-MB231 cells (0.5×10^6 cells) were co-transfected with 1 μg of HA-AGO1 (pIRES-FLAG/HA vector, Addgene) and 0.5 μg of expression vector for miR-182/miR-17 or miR-scr using Lipofectamine 2000. After 2 days cells were harvested using 400 μl lysis buffer (100 mM KCl, 5 mM MgCl2, 10 mM Hepes, pH 7.0, 0.5% Nonidet P-40) containing freshly added RNase inhibitor, RNaseOUT (Invitrogen, Carlsbad, Calif.) and Protease Inhibitor Cocktail (Roche, Basel, Switzerland). After centrifugation, a 50 μl aliquot of supernatant was taken as the input for subsequent RNA extraction. The remaining supernatant was gently shaken with HA-beads (HA-probe Santa Cruz sc-7392) for 4 h at 4° C. in spin columns (Pierce Spin Columns-Screw Cap). The columns were drained, washed and the retained beads were treated with 5 U DNaseI in NT2 buffer (50 mM Tris, pH7.4, 150 mM NaCl, 1 mM MgCl2, 0.05% Nonidet P-40) for 10 minutes at 37° C., washed with NT2 buffer and then treated with Proteinase K in NT2 buffer plus 1% SDS for 30 minutes at 55° C. […] RNA was reverse transcribed (see RNA isolation) and analyzed with qPCR for enrichment of mRNA of miR-182/miR-17 predicted targets.

Substance: miR-182: microRNA with sequence 5′ UUUGGCAAUGGUAGAACUCACACU 3′ (SEQ ID NO:1); given as mimic (Ambion) or expression vector (UUUGGCAAUGGUAGAACUCACACU; listed as RNA, chemistry not given here; listed as Homo sapiens)
- BRCA1 protein level (BRCA1 [1]; HL60 cells transiently transfected with expression vectors, Western blot): significant decrease
- BRCA1 mRNA level (BRCA1 [1]; ectopic overexpression, data not shown): moderate decrease
- sensitivity to IR (clonogenic survival) (MDA-MB231 cells): significantly more sensitive
- sensitivity to IR (clonogenic survival) (MDA-MB231 cells; listed as miR-182 mimic): significantly enhanced sensitivity to IR
- HR-mediated DSB repair efficiency (GFP positive cells) (U2OS-DR-GFP cells): significantly reduced HR-efficiency; also recorded: impedes homologous recombination-mediated repair
- BRCA1 protein level (BRCA1 [2]): sharply reduced; also recorded: lower levels; also recorded: diminish BRCA1 levels; also recorded: down regulates BRCA1 protein levels
- mitotic cells post-DNA damage (G2/M checkpoint) (U2OS cells): significant increase in mitotic cells; also recorded: impacts the G2/M checkpoint
- association of miRNA/AGO1 complex with BRCA1 transcript (BRCA1 transcript): associates selectively; also recorded: significantly enriched

— patent US9642821B2, “MiR-182 in the diagnosis and treatment of cancer” (Dana-Farber Cancer Institute, Inc., priority 2010, dated 2017)
